Data as given in paper PMC9785006, “The Study of Hypoglycemic Activity of 7-Terpenylcoumarins” (Molecules, 2022).

Experiments:
DPP IV [1] = target: T1, DPP IV (Homo sapiens, UniProt P27487); assay: fluorometric DPP (IV) inhibitor screening kit (Cayman), Gly-Pro-AMC substrate; at […] the effect was only a tendency ([…] < p < […]); type: biochemical
T1 construct: gene DPP4

DPP IV [2] = target: T1, DPP IV; assay: fluorometric DPP (IV) inhibitor screening kit (Cayman), Gly-Pro-AMC substrate; type: biochemical

T1 sequence (P27487 39-766): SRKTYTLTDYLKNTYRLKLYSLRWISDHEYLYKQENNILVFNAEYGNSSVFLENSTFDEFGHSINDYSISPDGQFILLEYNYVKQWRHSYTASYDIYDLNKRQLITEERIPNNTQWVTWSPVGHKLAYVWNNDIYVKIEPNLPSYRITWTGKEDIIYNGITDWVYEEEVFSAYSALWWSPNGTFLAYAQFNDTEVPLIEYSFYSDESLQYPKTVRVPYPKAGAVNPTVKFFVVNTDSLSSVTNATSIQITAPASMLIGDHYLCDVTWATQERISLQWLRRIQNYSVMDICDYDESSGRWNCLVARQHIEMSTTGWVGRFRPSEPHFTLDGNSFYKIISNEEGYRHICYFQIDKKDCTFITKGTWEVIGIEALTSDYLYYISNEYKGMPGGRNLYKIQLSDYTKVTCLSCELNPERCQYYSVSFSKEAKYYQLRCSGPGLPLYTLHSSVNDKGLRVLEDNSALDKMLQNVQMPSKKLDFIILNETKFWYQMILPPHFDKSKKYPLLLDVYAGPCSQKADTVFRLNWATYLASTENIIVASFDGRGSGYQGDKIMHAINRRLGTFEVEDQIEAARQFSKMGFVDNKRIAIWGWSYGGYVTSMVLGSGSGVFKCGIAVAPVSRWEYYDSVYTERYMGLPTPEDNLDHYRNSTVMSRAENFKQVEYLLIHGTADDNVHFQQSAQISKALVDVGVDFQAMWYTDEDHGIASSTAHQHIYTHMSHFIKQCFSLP

Compound | IC50 (DPP IV [1]) | IC50 (DPP IV [2])
CC1(C)[C@H]2CC=C(COc3ccc4c5c(c(=O)oc4c3)CCC5)[C@@H]1C2 [7b, 7-(((1R,5S)-6,6-Dimethylbicyclo [3.1.1]hept-2-en-2-yl)methoxy)-2,3-dihydrocyclopenta[c]chromen-4(1H)-one] | 115 µM | –
CC(C)=CCC/C(C)=C/COc1ccc2c(-c3ccccc3)cc(=O)oc2c1 [9a, (E)-7-(3,7-Dimethylocta-2,6-dienyloxy)-4-phenyl-2H-chromen-2-one] | – | 128 µM
